Measurements as given in paper PMC11201061, “Mechanistic Study of Antimicrobial Effectiveness of Cyclic Amphipathic Peptide [R4W4] against Methicillin-Resistant Staphylococcus aureus Clinical Isolates” (Antibiotics, 2024).
Converted amounts (≈) assume the structure as drawn. Counter-ions that a name gives are not always drawn. Like-named read-outs stand apart in the source and are kept apart here. Where a SMILES comes first, the peptide text is derived from it.

How the values were obtained:
MRSA LAC [1] = assay: Thermal stability by MIC after heat exposure; type: cell-based, Staphylococcus aureus; conditions: [R4W4] stock exposed to 25, 50, 75 and 100 °C (10 min), then microbroth dilution
Method: As per temperature sensitivity, the [R4W4] stock solution (1.15 mg/mL) in a 2 mL Eppendorf microtube was exposed to 100 °C for 10 min. After the thermal exposure, the [R4W4] antibacterial effectiveness was evaluated against MRSA using a microbroth dilution assay, as explained above.

MRSA Mec II = assay: microbe, parasite or virus in culture; type: cell-based, Staphylococcus aureus; conditions: for MBC/MIC: MRSA Mec II, blood isolate
Method: (§1) To determine whether the antibacterial activity of [R4W4] is bacteriostatic or bactericidal against clinical isolates of multidrug-resistant bacterial isolates, MIC and MBC were determined using the microbroth dilution method. Bacteriostatic activity was defined as a ratio of the MBC/MIC greater than four and bactericidal activity as MBC/MIC ratio ≤ 4 [33]. We added aliquots of test samples (256 μg/mL concentration of [R4W4] or vancomycin as a control prepared in TSB) to the first well of microplates. MHB media was added to the remaining wells. Two-fold serial dilutions were performed, starting with the highest drug concentration in well 1, and the dilution process continued. A bacterial aliquot of 1/150 dilution was prepared with a 0.5 McFarland standard solution from an overnight culture of the tested bacteria isolate. Bacteria were added to the microplate and placed into wells with the drug dilutions. The microplates were incubated overnight for 24 h at 37 °C. [R4W4] was synthesized and purified, as reported earlier.

MRSA Mec IV = assay: microbe, parasite or virus in culture; type: cell-based, Staphylococcus aureus; conditions: for MBC/MIC: MRSA Mec IV, lung isolate
Method: as §1

MRSA Mec III = assay: microbe, parasite or virus in culture; type: cell-based, Staphylococcus aureus; conditions: for MBC/MIC: MRSA Mec III, wound isolate
Method: as §1

MRSA Clin 5 = assay: microbe, parasite or virus in culture; type: cell-based, Staphylococcus aureus; conditions: for MBC/MIC: MRSA Clin 5, lung isolate
Method: as §1

MRSA LAC [2] = assay: microbe, parasite or virus in culture; type: cell-based, Staphylococcus aureus; conditions: for MBC/MIC: MRSA LAC, wound isolate
Method: as §1

MRSA Mec 1 = assay: microbe, parasite or virus in culture; type: cell-based, Staphylococcus aureus; conditions: for MBC/MIC: MRSA Mec 1, blood isolate
Method: as §1

MRSA Clin 6 = assay: microbe, parasite or virus in culture; type: cell-based, Staphylococcus aureus; conditions: for MBC/MIC: MRSA Clin 6, lung isolate
Method: as §1

[3] = tested on: MRSA (vancomycin hetero-non-susceptible) MU3; assay: microbe, parasite or virus in culture; type: cell-based, Staphylococcus aureus
Method: as §1

MRSA Mec V = assay: microbe, parasite or virus in culture; type: cell-based, Staphylococcus aureus; conditions: for MBC/MIC: MRSA Mec V, wound isolate
Method: as §1

MRSA USA300 = assay: microbe, parasite or virus in culture; conditions: for MIC against index isolate (no serial passage): MRSA USA300 index strain
Method: MRSA USA300 bacteria from −80 °C freezer stock were cultured on an LB agar plate overnight. One bacteria colony was added to a 6 mL fresh MHB with constant shaking at 200 rpm at 37 °C. The bacteria were transferred daily by inoculating 10 μL of stationary-phase culture into […] of MHB in a 1 mL cap-clipped Eppendorf tube. Then, 20 μL of bacteria aliquot was added to […] of MHB broth, with or without [R4W4], at a final concentration of the MIC overnight in an […] at 37 °C for five transfers. […] […] Experiments were performed in triplicates. Every time we increased the concentration of [R4W4], a sample of the induction generation was inoculated into 20% (vol/vol) glycerol and stored at −70 °C. The final MIC values of [R4W4], vancomycin, and levofloxacin were determined by modified microbroth dilution assay.

MRSA LAC [4] = conditions: for % Reduction in viable bacteria / Lethal rate (LR), log10 reduction: MRSA LAC in MHB; for viable bacteria at 26 h: MRSA LAC; for % reduction in viable bacteria over 1 × MIC, 2 × MIC and 4 × MIC: MRSA in MHB, range over the three concentrations
Method: The MRSA Los Angeles County (LAC) USA300 strain was cultured from −80 °C freezer stock and inoculated on an agar plate overnight. Two bacteria colonies were inoculated in MH broth overnight at 37 °C with shaking at 200 rpm. An aliquot was added to normal saline to achieve a 0.5 McFarland Standard suspension and then diluted 1:150 with MHB. The bacteria sample was plated on an agar plate at time zero. The test samples were prepared by adding [R4W4] or vancomycin to bacteria to achieve the final sample concentration of (1 × MIC, 2 × MIC, 4 × MIC) using media without antibacterial agents as positive control.
[…] The samples were diluted to minimize excessive CFU counts. The inoculated plates were incubated at 37 °C overnight. The surviving organisms were determined by counting colonies as CFU/plate. The average duplicate counts were multiplied by the dilution factors to arrive at CFU/mL. The microbial reduction was calculated by converting the count to log10 scale. The Log CFU/mL was plotted against time for different antibacterial concentrations.

[5] = tested on: Enterococcus faecium (VRE); type: cell-based; conditions: urine isolate
Method: as §1

[6] = tested on: bacterial isolates (nine MRSA, B. subtilis, C. difficile, VRE); type: cell-based; conditions: for bacteriostatic or bactericidal (Pankey's definition, MBC/MIC ≤ 4 bactericidal): all tested bacterial isolates; for MBC increase over MIC values: all the strains tested
Method: as §1

in vitro = conditions: human, 25% human serum
Method: (§2) Fresh human serum (4 mL) was centrifuged at 12,500× g for 15 min at 4 °C to remove the lipids. A 25% human serum sample was prepared by adding 375 µL of the human serum supernatant to 1125 µL of RPMI buffer. […] The test sample was incubated in a water bath at 37 °C until a predetermined time interval (0, 1, 2, 4, 6, 8.5, 12, and 20 h). At the time intervals, a 150 µL aliquot test sample was added to a 300 µL cocktail solution [ethanol/formic acid (98:2 v/v) mixture] to cease the reaction. The test samples of aliquots were stored on dry ice for 20 min and then centrifuged at 17,200× g for 20 min. For LC-MS analysis, 150 µL supernatant aliquot test samples were stored at −20 °C [54].
(§3) A 20 μL aliquot of each sample was analyzed using an Xterra MS C18 column (3.9 × 150 mm, 5 μm, Waters, MA, USA), Nexera XR, and Prominence Shimadzu LC-20AD XR systems (Shimadzu Corporation, Kyoto, Japan) coupled with Shimadzu LC-MS-2020 mass spectrometer (Shimadzu, OR, USA). A two-component LC system consisted of mobile phase A (0.1% formic acid and 10% acetonitrile in water) and mobile phase B (0.1% formic acid and 100% acetonitrile). The flow rate was set at 1.0 mL/min. The Xterra MS C18 column at 40 °C was allowed to equilibrate with 95% mobile phase A. Peptides were loaded to the column and washed for 5 min with 95% mobile Phase A. Analytes were separated using a binary gradient of 0–95% mobile Phase B for 25 min. […] MS was conducted in multiple reaction monitoring and positive electrospray ionization mode. Fourteen concentrations of [R4W4] prepared by two-fold dilution of 200 μg/mL to 0.39 μg/mL were used to prepare calibration curves. The calibration curves were plotted using weighted (1/×2) least-squares linear regression analysis of peptide mass spectra area under the curve (AUC) versus concentration.

[7] = 25% fresh human serum in RPMI buffer, 37 °C, peptide 100 µg/mL, 20 h; LC-MS; three independent experiments
Method: as §2, §3

[8] = Staphylococcus aureus, MRSA, 24 h

N=C(N)NCCC[C@@H]1NC(=O)[C@H](CCCNC(=N)N)NC(=O)[C@H](CCCNC(=N)N)NC(=O)[C@H](Cc2c[nH]c3ccccc23)NC(=O)[C@H](Cc2c[nH]c3ccccc23)NC(=O)[C@H](Cc2c[nH]c3ccccc23)NC(=O)[C@H](Cc2c[nH]c3ccccc23)NC(=O)[C@H](CCCNC(=N)N)NC1=O [[R4W4]] (cyclo(RRRRWWWW))
MIC after thermal exposure (MRSA LAC [1]): 4 µg/mL (≈ 2.92 µM)
MBC/MIC (MRSA Mec II): 2
MBC (MRSA Mec II; Mec II, 24 h): 8 µg/mL (≈ 5.84 µM)
MIC (MRSA Mec II; Mec II, 24 h): 4 µg/mL (≈ 2.92 µM)
MBC/MIC (MRSA Mec IV): 2
MBC (MRSA Mec IV; Mec IV, 24 h): 64 µg/mL (≈ 46.7 µM)
MIC (MRSA Mec IV; Mec IV, 24 h): 32 µg/mL (≈ 23.4 µM)
MBC/MIC (MRSA Mec III): 2
MBC (MRSA Mec III; Mec III, 24 h): 8 µg/mL (≈ 5.84 µM)
MIC (MRSA Mec III; Mec III, 24 h): 4 µg/mL (≈ 2.92 µM)
MBC (MRSA Clin 5; Clin 5, 24 h): 32 µg/mL (≈ 23.4 µM)
MIC (MRSA Clin 5; Clin 5, 24 h): 16 µg/mL (≈ 11.7 µM)
MBC/MIC (MRSA Clin 5): 2
MBC (MRSA LAC [2]; LAC, 24 h): 16 µg/mL (≈ 11.7 µM)
MBC/MIC (MRSA LAC [2]): 4
MBC/MIC (MRSA Mec 1): 2
MBC (MRSA Mec 1; Mec 1, 24 h): 4 µg/mL (≈ 2.92 µM)
MIC (MRSA Mec 1; Mec 1, 24 h): 2 µg/mL (≈ 1.46 µM)
MBC (MRSA Clin 6; Clin 6, 24 h): 32 µg/mL (≈ 23.4 µM)
MIC (MRSA Clin 6; Clin 6, 24 h): 32 µg/mL (≈ 23.4 µM)
MBC/MIC (MRSA Clin 6): 1
MBC/MIC ([3]; MRSA MU3, lung isolate): 2
MBC ([3]; MRSA MU3, lung isolate, averages of triplicates of three different experiments): 32 µg/mL (≈ 23.4 µM)
MIC ([3]; vancomycin hetero-non-susceptible) MU3, 24 h): 16 µg/mL (≈ 11.7 µM)
MBC/MIC (MRSA Mec V): 4
MBC (MRSA Mec V; Mec V, 24 h): 64 µg/mL (≈ 46.7 µM)
MIC (MRSA Mec V; Mec V, 24 h): 16 µg/mL (≈ 11.7 µM)
final [R4W4] concentration at which growth was achieved at the end of serial passage (MRSA USA300; MRSA USA300, 35 passages, stepwise increasing concentration): 32 µg/mL
MIC against serial passaged [R4W4]-resistant isolate (MRSA USA300; MRSA USA300 after serial passage in [R4W4], MIC in duplicate): 16 µg/mL (≈ 11.7 µM)
MIC against index isolate (no serial passage) (MRSA USA300; MIC in duplicate): 4 µg/mL (≈ 2.92 µM)
% Reduction in viable bacteria (MRSA LAC [4]; 1 × MIC, 100 × (1 − 10^−LR)): 99.67%
% Reduction in viable bacteria (MRSA LAC [4]; 2 × MIC): 99.78%
Lethal rate (LR), log10 reduction (MRSA LAC [4]; 2 × MIC): 2.65
% Reduction in viable bacteria (MRSA LAC [4]; 4 × MIC): 99.87%
Lethal rate (LR), log10 reduction (MRSA LAC [4]; 4 × MIC): 2.89
viable bacteria at 26 h (MRSA LAC [4]; 4 × MIC): bacteria remaining viable up to 26 h
% reduction in viable bacteria over 1 × MIC, 2 × MIC and 4 × MIC (MRSA LAC [4]): 99.67–99.87%
MBC/MIC [5]: 4
MIC range, MRSA clinical isolates from the blood ([6]; 24 h): 2 to 4 µg/mL
MIC range, MRSA clinical isolates from the lungs ([6]; 24 h): 16 to 32 µg/mL
bacteriostatic or bactericidal (Pankey's definition, MBC/MIC ≤ 4 bactericidal) [6]: bactericidal
MBC increase over MIC values [6]: 2–4 fold
half-life at 100 µg/mL (in vitro): > 20 h
remaining at 1 h, 100 µg/mL (in vitro): ~99%
remaining at 2 h, 100 µg/mL (in vitro): 93%
remaining at 6 h, 100 µg/mL (in vitro): 80%
remaining at 12 h, 100 µg/mL (in vitro): 77%
remaining at 20 h, 100 µg/mL (in vitro): 76%
remaining [R4W4] (intact peptide) [7]: over 70%

CN[C@H](CC(C)C)C(=O)N[C@H]1C(=O)N[C@@H](CC(N)=O)C(=O)N[C@H]2C(=O)N[C@H]3C(=O)N[C@H](C(=O)N[C@H](C(=O)O)c4cc(O)cc(O)c4-c4cc3ccc4O)[C@H](O)c3ccc(c(Cl)c3)Oc3cc2cc(c3O[C@@H]2O[C@H](CO)[C@@H](O)[C@H](O)[C@H]2O[C@H]2C[C@](C)(N)[C@H](O)[C@H](C)O2)Oc2ccc(cc2Cl)[C@H]1O [Vancomycin, Vancomycin Hydrochloride, reference compound]
MBC/MIC (MRSA Mec II): 2
MBC (MRSA Mec II; Staphylococcus aureus, MRSA): 4 µg/mL
MIC (MRSA Mec II; [8]): 2 µg/mL
MBC/MIC (MRSA Mec IV): 4
MBC (MRSA Mec IV; Staphylococcus aureus, MRSA): 8 µg/mL
MIC (MRSA Mec IV; [8]): 2 µg/mL
MBC/MIC (MRSA Mec III): 2
MBC (MRSA Mec III; Staphylococcus aureus, MRSA): 2 µg/mL
MIC (MRSA Mec III; [8]): 1 µg/mL
MBC/MIC (MRSA Clin 5): 1
MBC (MRSA Clin 5; Staphylococcus aureus, MRSA): 2 µg/mL
MIC (MRSA Clin 5; [8]): 2 µg/mL
MBC/MIC (MRSA LAC [2]): 2
MBC (MRSA LAC [2]; Staphylococcus aureus, MRSA): 2 µg/mL
MIC (MRSA LAC [2]; [8]): 1 µg/mL
MBC/MIC (MRSA Mec 1): 2
MBC (MRSA Mec 1; Staphylococcus aureus, MRSA): 2 µg/mL
MIC (MRSA Mec 1; [8]): 1 µg/mL
MBC/MIC (MRSA Clin 6): 4
MBC (MRSA Clin 6; Staphylococcus aureus, MRSA): 8 µg/mL
MIC (MRSA Clin 6; [8]): 2 µg/mL
MBC/MIC ([3]; MRSA MU3, lung isolate): 1.5
MBC ([3]; Staphylococcus aureus, MRSA): 3 µg/mL
MIC [3, 8]: 2 µg/mL
MBC/MIC (MRSA Mec V): 2
MBC (MRSA Mec V; Staphylococcus aureus, MRSA): 4 µg/mL
MIC (MRSA Mec V; [8]): 2 µg/mL
MIC against index isolate (no serial passage) (MRSA USA300; MIC in duplicate): 0.5 µg/mL
change in MIC after serial passage (MRSA USA300; MRSA USA300 passaged versus index strain): 4 folds
MIC (MRSA USA300; Staphylococcus aureus, MRSA|USA300, read-out: MIC against serial passaged [R4W4]-resistant isolate): 4 µg/mL
Lethal rate (LR), log10 reduction (MRSA LAC [4]; 1 × MIC ([R4W4] 4 µg/mL, vancomycin 1 µg/mL)): 1.02
% Reduction in viable bacteria (MRSA LAC [4]; 1 × MIC, 100 × (1 − 10^−LR)): 90.50%
% Reduction in viable bacteria (MRSA LAC [4]; 1 × MIC, 100 × (1 − 10^−LR), listed as vancomycin): > 90%
% Reduction in viable bacteria (MRSA LAC [4]; 2 × MIC): 98.98%
Lethal rate (LR), log10 reduction (MRSA LAC [4]; 2 × MIC): 1.99
% Reduction in viable bacteria (MRSA LAC [4]; 4 × MIC): 99.58%
Lethal rate (LR), log10 reduction (MRSA LAC [4]; 4 × MIC): 2.37
viable bacteria at 26 h (MRSA LAC [4]; 4 × MIC): no viable bacteria were recovered at 26 h
% reduction in viable bacteria over 1 × MIC, 2 × MIC and 4 × MIC (MRSA LAC [4]): 90.50–99.58%
MIC ([5]; microbroth dilution, 24 h, 37 °C, averages of triplicates of three different experiments, N/A = not active): not active
bacteriostatic or bactericidal (Pankey's definition, MBC/MIC ≤ 4 bactericidal) [6]: bactericidal
MBC increase over MIC values [6]: 2–4 fold
